Here are results for four molecules from US20110275559A1, “Long-Acting Y2 and/or Y4 Receptor Agonists” (Novo Nordisk A/S, priority 2008, published 2011).

As usually defined, the EC50 is the concentration that produces a half-maximal response. A word on the half-life: it is the time in which the quantity being followed falls by half. Higher therefore signals slow decline.

The target of one data set is T1, Y4 receptor (Homo sapiens, UniProt P50391).
T1 construct: host or cells: ACTOne HEK-293 cells
As to the kind of experiment: Y4 receptor ACTOne based FLIPR assay (cAMP biosensor). Format: cell-based.

For data set [1], the target named is T2, Y2 receptor (Homo sapiens, UniProt P49146).
T2 construct: host or cells: ACTOne HEK-293 cells
T2 sequence (P49146 1-381): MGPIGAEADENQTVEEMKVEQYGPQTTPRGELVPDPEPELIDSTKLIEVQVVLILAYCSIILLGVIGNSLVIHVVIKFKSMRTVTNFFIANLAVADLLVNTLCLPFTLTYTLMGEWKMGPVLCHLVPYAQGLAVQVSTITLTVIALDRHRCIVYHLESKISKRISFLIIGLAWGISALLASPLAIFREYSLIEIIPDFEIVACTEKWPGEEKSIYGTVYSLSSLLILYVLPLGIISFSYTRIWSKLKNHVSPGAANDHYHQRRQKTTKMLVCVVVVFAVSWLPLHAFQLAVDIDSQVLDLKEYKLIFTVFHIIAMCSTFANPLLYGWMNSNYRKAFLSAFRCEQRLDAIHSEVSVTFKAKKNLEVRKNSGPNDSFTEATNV
As to the kind of experiment: Y2 receptor ACTOne based FLIPR assay (cAMP biosensor). Format: cell-based.

Another data set in a line: in vivo. The following applies: Göttingen, minipig. The essentials:
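Catheterised mini-pigs received compound i.v. at 10 nmol/kg in pH 4.0 phosphate/NaCl/tween vehicle, or alternatively i.v. or s.c. at 1–30 nmol/kg in pH 8.0 K2HPO4/tween. Stabilised plasma was sampled up to 13 days and assayed by LC-MS (LLOQ 2 nM). Half-life came from non-compartmental analysis of individual animal profiles.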

Data set [2] concerns the target T3, Y2 receptor (UniProt P49146 1-381, limits assumed).
T3 sequence (looked up): T2 sequence (P49146 1-381)
As to the kind of experiment: cell-based or functional assay.

Where two headings read alike, the source gives them in different places. *1 amine or outer side, *2 acyl side, *3 side chain or, on linkers, in order; H or OH if unused. Where a SMILES comes first, the peptide text is derived from it. Where no end group is shown, it is not given here. Side-chain parts run from the residue outwards. The star is where a group is joined. C20 diacid = O=C(O)CCCCCCCCCCCCCCCCCCC(=O)*; C18 diacid = O=C(O)CCCCCCCCCCCCCCCCC(=O)*; γGlu = O=C(O)[C@H](CCC(=O)[*:2])N[*:1]; Trx = NC[C@H]1CC[C@H](C(=O)O)CC1; AEEA = NCCOCCOCC(=O)O A value given as a limit tells only on which side of the number the result lay.

T1 sequence (P50391 whole entry): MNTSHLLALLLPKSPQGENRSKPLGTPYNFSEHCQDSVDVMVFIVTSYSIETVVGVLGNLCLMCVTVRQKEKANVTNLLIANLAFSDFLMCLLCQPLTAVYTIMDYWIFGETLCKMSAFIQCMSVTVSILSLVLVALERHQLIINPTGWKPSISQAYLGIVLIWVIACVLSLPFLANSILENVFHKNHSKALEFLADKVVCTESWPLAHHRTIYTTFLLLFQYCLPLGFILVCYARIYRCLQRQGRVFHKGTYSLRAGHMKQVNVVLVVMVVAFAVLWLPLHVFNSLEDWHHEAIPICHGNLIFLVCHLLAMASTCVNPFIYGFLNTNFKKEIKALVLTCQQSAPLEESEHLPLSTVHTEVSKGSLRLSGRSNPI

In the case of `CC[C@H](C)[C@H](NC(=O)[C@H](Cc1ccc(O)cc1)NC(=O)[C@H](CCCNC(=N)N)NC(=O)[C@H](CCCNC(=N)N)NC(=O)[C@H](CC(C)C)NC(=O)[C@H](CC(=O)O)NC(=O)[C@H](C)NC(=O)[C@H](C)NC(=O)[C@H](Cc1ccc(O)cc1)NC(=O)[C@H](CCC(N)=O)NC(=O)[C@H](C)NC(=O)[C@H](CC(C)C)NC(=O)[C@H](CCC(N)=O)NC(=O)[C@H](CCC(=O)O)NC(=O)[C@@H]1CCCN1C(=O)[C@@H](NC(=O)[C@H](C)NC(=O)[C@H](CC(N)=O)NC(=O)[C@H](CC(=O)O)NC(=O)CNC(=O)[C@@H]1CCCN1C(=O)[C@H](Cc1ccc(O)cc1)NC(=O)[C@@H](NC(=O)[C@@H]1CCCN1C(=O)[C@H](CCC(=O)O)NC(=O)[C@H](CC(C)C)NC(=O)[C@@H]1CCCN1)C(C)C)[C@@H](C)O)C(=O)N[C@@H](CC(N)=O)C(=O)N[C@@H](CC(C)C)C(=O)N[C@@H](CC(C)C)C(=O)N[C@H](C(=O)N[C@@H](CCCCNC(=O)COCCOCCNC(=O)COCCOCCNC(=O)CC[C@H](NC(=O)CCCCCCCCCCCCCCCCC(=O)O)C(=O)O)C(=O)N1CCC[C@H]1C(=O)N[C@@H](CCCNC(=N)N)C(=O)N[C@@H](Cc1ccc(O)cc1)C(N)=O)[C@@H](C)O` [SEQ ID NO: 41, N-epsilon33-[2-(2-{2-[2-(2-{2-[(S)-4-Carboxy-4-(17-carboxyheptadecanoylamino)butyrylamino]ethoxy}ethoxy)acetylamino]-ethoxy}ethoxy)acetyl][Leu17,Leu30,Lys33]hPP2-36] (H-PLEPVYPGDNATPEQLAQYAADLRRYINLLTK([AEEA-AEEA-γGlu-C18 diacid])PRY-NH2), the EC50 on Y4 receptor (Table 2, PP analogues, ACTOne HEK-293 cells, read-out: Y4 cAMP EC50) was over 1000 nM; at Y2 receptor [1] (Table 2, PP analogues, ACTOne HEK-293 cells, read-out: Y2 cAMP EC50) it was over 1000 nM. Further, the half-life was 105 h in the data set “in vivo” (iv, […]) and 93 h in “in vivo” (male, sc, […]).
Turning to `CC[C@H](C)[C@H](NC(=O)[C@H](Cc1ccc(O)cc1)NC(=O)[C@H](CCCNC(=N)N)NC(=O)[C@H](CCCNC(=N)N)NC(=O)[C@H](CC(C)C)NC(=O)[C@H](CC(=O)O)NC(=O)[C@H](C)NC(=O)[C@H](C)NC(=O)[C@H](Cc1ccc(O)cc1)NC(=O)[C@H](CCC(N)=O)NC(=O)[C@H](C)NC(=O)[C@H](CC(C)C)NC(=O)[C@H](CCC(N)=O)NC(=O)[C@H](CCC(=O)O)NC(=O)[C@@H]1CCCN1C(=O)[C@@H](NC(=O)[C@H](C)NC(=O)[C@H](CC(N)=O)NC(=O)[C@H](CC(=O)O)NC(=O)CNC(=O)[C@@H]1CCCN1C(=O)[C@H](Cc1ccc(O)cc1)NC(=O)[C@@H](NC(=O)[C@@H]1CCCN1C(=O)[C@H](CCC(=O)O)NC(=O)[C@H](CC(C)C)NC(=O)[C@@H]1CCCN1C(=O)COCCOCCNC(=O)COCCOCCNC(=O)CC[C@H](NC(=O)[C@H]1CC[C@H](CNC(=O)CCCCCCCCCCCCCCCCCCC(=O)O)CC1)C(=O)O)C(C)C)[C@@H](C)O)C(=O)N[C@@H](CC(N)=O)C(=O)N[C@@H](CC(C)C)C(=O)N[C@@H](CC(C)C)C(=O)N[C@H](C(=O)N[C@@H](CCCNC(=N)N)C(=O)N1CCC[C@H]1C(=O)N[C@@H](CCCNC(=N)N)C(=O)N[C@@H](Cc1ccc(O)cc1)C(N)=O)[C@@H](C)O` [SEQ ID NO: 56, N-alfa-[2-(2-{2-[2-(2-{2-[(S)-4-Carboxy-4-({trans-4-[(19-carboxynonadecanoylamino)methyl]cyclohexanecarbonyl}amino)butyrylamino]-ethoxy}ethoxy)acetylamino]ethoxy}ethoxy)acetyl][Leu17,Leu30]hPP2-36] ({C20 diacid-Trx-γGlu-AEEA-AEEA}-PLEPVYPGDNATPEQLAQYAADLRRYINLLTRPRY-NH2; C-terminus assumed), the EC50 at Y4 receptor was 4 nM; on Y2 receptor [1], over 1000 nM. Moreover, in the data set “in vivo” (in vivo, iv, 6 nmol/kg), the half-life was 22 h.
Take `CC[C@H](C)[C@H](NC(=O)[C@H](Cc1ccc(O)cc1)NC(=O)[C@H](CCCCNC(=O)COCCOCCNC(=O)COCCOCCNC(=O)CC[C@H](NC(=O)[C@H]1CC[C@H](CNC(=O)CCCCCCCCCCCCCCCCCCC(=O)O)CC1)C(=O)O)NC(=O)[C@H](CCCNC(=N)N)NC(=O)[C@H](CC(C)C)NC(=O)[C@H](CC(=O)O)NC(=O)[C@H](C)NC(=O)[C@H](C)NC(=O)[C@H](Cc1ccc(O)cc1)NC(=O)[C@H](CCC(N)=O)NC(=O)[C@H](C)NC(=O)[C@H](CC(C)C)NC(=O)[C@H](CCC(N)=O)NC(=O)[C@H](CCC(=O)O)NC(=O)[C@@H]1CCCN1C(=O)[C@@H](NC(=O)[C@H](C)NC(=O)[C@H](CC(N)=O)NC(=O)[C@H](CC(=O)O)NC(=O)CNC(=O)[C@@H]1CCCN1C(=O)[C@H](Cc1ccc(O)cc1)NC(=O)[C@@H](NC(=O)[C@@H]1CCCN1C(=O)[C@H](CCC(=O)O)NC(=O)[C@H](CC(C)C)NC(=O)[C@@H]1CCCN1)C(C)C)[C@@H](C)O)C(=O)N[C@@H](CC(N)=O)C(=O)N[C@@H](CC(C)C)C(=O)N[C@@H](CC(C)C)C(=O)N[C@H](C(=O)N[C@@H](CCCNC(=N)N)C(=O)N1CCC[C@H]1C(=O)N[C@@H](CCCNC(=N)N)C(=O)N[C@@H](Cc1ccc(O)cc1)C(N)=O)[C@@H](C)O` [SEQ ID NO: 45, N-epsilon26-[2-(2-{2-[2-(2-{2-[(S)-4-Carboxy-4-({trans-4-[(19-carboxynonadecanoylamino)methyl]cyclohexanecarbonyl}amino)butyrylamino]-ethoxy}ethoxy)acetylamino]ethoxy}ethoxy)acetyl][Leu17,Lys26,Leu30]hPP2-36] (H-PLEPVYPGDNATPEQLAQYAADLRK([AEEA-AEEA-γGlu-Trx-C20 diacid])YINLLTRPRY-NH2; N-terminus and C-terminus assumed): the EC50 on Y4 receptor was 7 nM; on Y2 receptor [1], over 1000 nM. The molecule further gave a half-life in “in vivo” (in vivo, iv, 4 nmol/kg) of 58 h.

B1: N-alfa-[2-(2-{2-[2-(2-{2-[(S)-4-Carboxy-4-({trans-4-[(19-carboxynonadecanoylamino)methyl]cyclohexanecarbonyl}amino)butyrylamino]-ethoxy}ethoxy)acetylamino]ethox … (peptide)
peptide: {C20 diacid-Trx-γGlu-AEEA-AEEA}-NRYYASLRHYLNLVTRQRY
modifications: ends and bridges not checked
In the case of B1, in the data set with Y2 receptor [2], the “Y2 cAMP EC50” value stood at 97 nM.
